Patent US20230092679A1, “MCL-1 INHIBITOR ANTIBODY-DRUG CONJUGATES AND METHODS OF USE” (NOVARTIS AG, priority 2019, published 2023)
Read-outs that look alike come from different tables or passages of the source.

Columns and labels:
Format in all cases: cell-based
[1] = system: representative cancer cell lines; experiment: CellTiter-Glo proliferation assay (Example 6), summary over the cell lines; conditions: 120 h, 5 days, read-out: IC50 values (range over cell lines)
Experimental: Mcl-1 ADCs were tested on nine endogenous cancer cell lines and one isogenic cell line engineered to overexpress a target of interest. Six targets were assessed: HER2, BCMA, CD38, CD48, CD79b, and CD33. […]
The ability of Mcl-1 ADCs to inhibit cell proliferation and survival was assessed using a Promega CellTiter-Glo® proliferation assay. […] Cell viability and cell density were determined using a cell counter (Vi-Cell XR Cell Viability Analyzer, Beckman Coulter). […] Plates were incubated at 5% CO2, 37° C. for 5 days in a tissue culture incubator, after which cell viability was assessed through the addition of 25 μl of CellTiter Glo® (Promega, Cat. No. G7573), a reagent which lyses cells and measures total adenosine triphosphate (ATP) content. Plates were incubated at room temperature for 10 minutes to stabilize luminescent signals prior to reading using a luminescence reader (EnVision Multilabel Plate Reader, PerkinElmer). […]

aml193 = experiment: In vitro ADC activity, AML cell lines, CellTiter-Glo (Example 20); conditions: aml193, 5 days
eol1 = experiment: as above; conditions: eol1, 5 days
hel9217 = experiment: as above; conditions: hel9217, 5 days
kasumi1 = experiment: as above; conditions: kasumi1, 5 days
kg1 = experiment: as above; conditions: kg1, 5 days
ko52 = experiment: as above; conditions: ko52, 5 days
m07e = experiment: as above; conditions: 5 days
monomac1 = experiment: as above; conditions: monomac1, 5 days
monomac6 = experiment: as above; conditions: monomac6, 5 days
nb4 = experiment: as above; conditions: nb4, 5 days
skm1 = experiment: as above; conditions: skm1, 5 days
tf1 = experiment: as above; conditions: tf1, 5 days

SMILES: COc1ccccc1-c1nccc(COc2ccccc2C[C@@H](Oc2ncnc3sc(-c4ccc(F)cc4)c(-c4ccc(OCCN5CCN(C)CC5)c(Cl)c4C)c23)C(=O)O)n1 [P1, (2R)-2-[5-[3-chloro-2-methyl-4-[2-(4-methylpiperazin-1-yl)ethoxy]phenyl]-6-(4-fluorophenyl)thieno[2,3-d]pyrimidin-4-yl]oxy-3-[2-[[2-(2-methoxyphenyl)pyrimidin-4-yl]methoxy]phenyl]propanoic acid]
- IC50 ([1]; HER2-positive cancer cell lines): 10 to 60 nM
- IC50 ([1]; representative cancer cell lines except HER2-positive): 0.038 to 5.6 nM
- GI50 (aml193; 120 h): 6 nM
- Amax (aml193; in % (unit assumed)): −87
- GI50 (eol1; Homo sapiens, 120 h): 1 nM
- Amax (eol1; in % (unit assumed)): −91
- GI50 (hel9217; Homo sapiens, HEL 92.1.7, 120 h): 5280 nM
- Amax (hel9217; in % (unit assumed)): −1
- GI50 (kasumi1; Homo sapiens, Kasumi 1, 120 h): 37 nM
- Amax (kasumi1; in % (unit assumed)): −87
- GI50 (kg1; Homo sapiens, KG-1, 120 h): 861 nM
- Amax (kg1; in % (unit assumed)): −69
- GI50 (ko52; 120 h): 500 nM
- Amax (ko52; in % (unit assumed)): −75
- Amax (m07e; in % (unit assumed)): −74
- GI50 (m07e; M-07e, 120 h): 94 nM
- GI50 (monomac1; Mono-Mac-1, 120 h): 1 nM
- Amax (monomac1; in % (unit assumed)): −66
- GI50 (monomac6; Homo sapiens, MONO-MAC-6, 120 h): 1 nM
- Amax (monomac6; in % (unit assumed)): −43
- GI50 (nb4; Homo sapiens, NB-4, 120 h): 3 nM
- Amax (nb4; in % (unit assumed)): −62
- GI50 (skm1; Homo sapiens, SKM-1, 120 h): 119 nM
- Amax (skm1; in % (unit assumed)): −49
- GI50 (tf1; Homo sapiens, TF-1, 120 h): 239 nM
- Amax (tf1; unit assumed): 10%
